The record followed here is patent publication US20220144841A1, “TRISUBSTITUTED PYRAZOLO [1,5-A] PYRIMIDINE COMPOUNDS AS CDK7 INHIBITORS” (THE TRANSLATIONAL GENOMICS RESEARCH INSTITUTE, priority 2019, published 2022).

The structures appear in SMILES notation. Structures can show the parent of a compound that is named as a salt.

This assay concerns the target T1, CDK7/CycH/MAT1 (Homo sapiens, UniProt P50613).
T1 construct: purchased ProQinase 0366-0360-4
The assay is described as follows: Kinase ADP-Glo Assay. It counts as biochemical. To be noted: ADP-Glo assay (compounds without *), ATP 1 μM, 60 minutes at room temperature. The protocol: Assay Buffer: 50 mM HEPES, 3 mM MgCl2, 3 mM MnCl2, 1 mM DTT, 3 μM Na3VO4, pH 7.5
Substrate RB: CTF Peptide (ProQinase #: 0040-0000-6)
ADP-Glo™ Assay (Promega #: V9101): ATP: 10 mM, ADP-Glo™ Reagent, Kinase Detection Reagent
384-well white assay plates
A ten point serial dilution of compound was prepared at 5× concentration in assay buffer with the final assay concentrations starting at 30 μM, 10 μM, 3 μM, 1 μM . . . 0 μM. Enzyme, substrate, and ATP were used at 40 ng, 200 ng (or 400 ng)^+ and 1 μM, respectively. The assay plate was set up by mixing the components in a total reaction volume of 10 μL per well. The plate was centrifuged gently for 10 seconds and incubated at room temperature (RT) for 60 minutes in the dark. The ADP-Glo Reagent and kinase detection reagent were added and incubated as recommended. The reaction was quantified by measuring luminescence on the Perkin Elmer Envision plate reader. Data was analyzed using Graphpad Prism 7 software. *With CDK2 enzyme, 400 ng of substrate was used.
(ADP-Glo turns the ADP formed in a reaction into a luminescent signal.)

T1 sequence (P50613 whole entry): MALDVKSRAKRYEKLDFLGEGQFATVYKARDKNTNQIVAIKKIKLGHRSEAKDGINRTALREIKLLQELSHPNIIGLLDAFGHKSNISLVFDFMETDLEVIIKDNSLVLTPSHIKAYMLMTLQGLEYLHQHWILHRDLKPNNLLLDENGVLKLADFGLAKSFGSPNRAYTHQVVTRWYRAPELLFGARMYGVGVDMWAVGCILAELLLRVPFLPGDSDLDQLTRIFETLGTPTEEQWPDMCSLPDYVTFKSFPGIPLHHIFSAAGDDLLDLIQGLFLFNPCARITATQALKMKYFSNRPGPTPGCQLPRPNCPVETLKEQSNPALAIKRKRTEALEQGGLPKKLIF
T1 sequence (P51946 whole entry partner): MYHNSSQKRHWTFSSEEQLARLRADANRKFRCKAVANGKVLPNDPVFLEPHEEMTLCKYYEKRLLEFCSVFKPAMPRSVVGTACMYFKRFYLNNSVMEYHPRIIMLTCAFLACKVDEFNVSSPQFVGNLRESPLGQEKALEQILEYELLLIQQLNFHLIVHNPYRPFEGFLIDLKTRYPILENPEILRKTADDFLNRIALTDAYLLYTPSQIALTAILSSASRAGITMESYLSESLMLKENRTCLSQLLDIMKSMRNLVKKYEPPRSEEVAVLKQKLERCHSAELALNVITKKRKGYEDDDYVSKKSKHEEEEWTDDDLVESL
T1 sequence (P51948 whole entry partner): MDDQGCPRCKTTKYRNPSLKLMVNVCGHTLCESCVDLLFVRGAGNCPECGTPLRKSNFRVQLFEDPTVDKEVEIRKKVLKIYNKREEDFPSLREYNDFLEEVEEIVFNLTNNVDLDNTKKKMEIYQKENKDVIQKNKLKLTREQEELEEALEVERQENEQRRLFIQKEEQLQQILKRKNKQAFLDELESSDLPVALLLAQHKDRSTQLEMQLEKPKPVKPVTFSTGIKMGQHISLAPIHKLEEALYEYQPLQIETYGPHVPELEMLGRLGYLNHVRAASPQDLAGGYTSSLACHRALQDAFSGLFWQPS

`N#Cc1cnn2c(NCc3cccc(F)c3)cc(N[C@H]3CCCNC3)nc12` [Compound I-29, (S)-7-((3-fluorobenzyl)amino)-5-((piperidin-3-yl)amino)pyrazolo[1,5-a]pyrimidine-3-carbonitrile]: the half-inhibitory concentration (IC50) (as a rule, the point on the concentration scale where inhibition reaches its midpoint) fell in the range of 100 to 1000 nM.
The same measure for `O[C@H]1CCNC[C@@H]1Nc1cc(Nc2cccc(F)c2)n2ncc(C3CC3)c2n1` [Compound I-21, (3S,4S)-3-((3-cyclopropyl-7-((3-fluorophenyl)amino)pyrazolo [1,5-a]pyrimidin-5-yl)amino)piperidin-4-ol hydrochloride]: more than 1000 nM; for `Fc1cc(Nc2cc(O[C@H]3CCCNC3)nc3c(C4CC4)cnn23)cc(C(F)(F)F)c1` [Compound I-64, (S)-3-cyclopropyl-N-(5-fluoro-3-trifluoromethylphenyl)-5-((piperidin-3-yl)oxy)pyrazolo[1,5-a]pyrimidin-7-amine]: 100 to 1000 nM.
The same measure for `N#Cc1cc(F)cc(Nc2cc(NC[C@H]3CCNC[C@@H]3O)nc3c(C4CCC4)cnn23)c1` [Compound I-55, (3R,4R)-3-((3-cyclobutyl-5-((3-hydroxypiperidin-4-yl)methylamino)pyrazolo[1,5-a]pyrimidin-7-yl)amino)-5-fluorobenzonitrile]: less than 100 nM.
Next, `O[C@@H]1CNCC[C@H]1CNc1cc(Nc2cc(F)cc(F)c2)n2ncc(C3CC3)c2n1` [Compound I-47, (3S,4S)-4-((3-cyclopropyl-7-((3,5-difluorophenyl)amino)pyrazolo[1,5-a]pyrimidin-5-yl)aminomethyl)piperidin-3-ol]: 100 to 1000 nM; `O[C@@H]1CNCC[C@H]1CNc1cc(Nc2cccc(F)c2)n2ncc(C3CC3)c2n1` [Compound I-11, (3S,4S)-4-(((3-cyclopropyl-7-((3-fluorophenyl)amino)pyrazolo [1,5-a]pyrimidin-5-yl)amino)methyl)piperidin-3-ol]: less than 100 nM; `Cc1cc(Nc2cc(O[C@H]3CCCNC3)nc3c(C4CCC4)cnn23)cc(C(F)(F)F)c1` [Compound I-66, (S)-3-cyclobutyl-N-(5-methyl-3-trifluoromethylphenyl)-5-((piperidin-3-yl)oxy)pyrazolo[1,5-a]pyrimidin-7-amine]: less than 100 nM.
Regarding `Cc1cc(C#N)cc(Nc2cc(O[C@H]3CCCNC3)nc3c(C4CC4)cnn23)c1` [Compound I-69, (S)-3-((3-cyclopropyl-5-((piperidin-3-yl)oxy)pyrazolo [1,5-a]pyrimidin-7-yl)amino)-5-methylbenzonitrile], the IC50 is less than 100 nM.
The same measure for `Cc1cc(Nc2cc(N[C@H]3CCCNC3)nc3c(C4CCC4)cnn23)cc(C(F)(F)F)c1` [Compound I-63, (S)-3-cyclobutyl-N^7-(5-methyl-3-trifluoromethylphenyl)-N^5-(piperidin-3-yl)pyrazolo[1,5-a]pyrimidine-5,7-diamine]: less than 100 nM.
Next, `N#Cc1cccc(Nc2cc(NC[C@H]3CCNC[C@@H]3O)nc3c(C4CC4)cnn23)c1` [Compound I-48, (3R,4R)-3-(((3-cyclopropyl-5-(3-hydroxypiperidin-4-yl)methylamino)pyrazolo[1,5-a]pyrimidin-7-yl)amino)benzonitrile]: less than 100 nM.
The same measure for `Cc1cc(Nc2cc(N[C@H]3CCCNC3)nc3c(C4CC4)cnn23)cc(C(F)(F)F)c1` [Compound I-62, (S)-3-cyclopropyl-N^7-(5-methyl-3-trifluoromethylphenyl)-N^5-(piperidin-3-yl)pyrazolo[1,5-a]pyrimidine-5,7-diamine]: 100 to 1000 nM; for `CS(=O)(=O)c1cccc(Nc2cc(NC[C@H]3CCNC[C@@H]3O)nc3c(C4CC4)cnn23)c1` [Compound I-51, (3R,4R)-((3-cyclopropyl-7-((3-methylsulfonylphenyl)amino)pyrazolo[1,5-a]pyrimidin-5-yl)aminomethyl)piperidin-3-ol]: less than 100 nM; for `N#Cc1cc(F)cc(Nc2cc(NC[C@@H]3CCNC[C@H]3O)nc3c(C4CC4)cnn23)c1` [Compound I-16, (3S,4S)-3-((3-cyclopropyl-5-(((3-hydroxy)piperidin-4-yl)methylamino)pyrazolo[1,5-a]pyrimidin-7-yl)amino)-5-fluorobenzonitrile trifluoroacetate salt]: more than 1000 nM.
As to `Cc1cccc(CNc2cc(N[C@H]3CCCNC3)nc3c(C#N)cnn23)c1` [Compound I-30, (S)-7-((3-methylbenzyl)amino)-5-((piperidin-3-yl)amino)pyrazolo[1,5-a]pyrimidine-3-carbonitrile], the IC50 fell in the range of 100 to 1000 nM.
Next, `Fc1cccc(Nc2cc(O[C@H]3CCCNC3)nc3c(C4CC4)cnn23)c1` [Compound I-4, (S)-3-cyclopropyl-N-(3-fluorophenyl)-5-((piperidin-3-yl)oxy)pyrazolo[1,5-a]pyrimidin-7-amine]: less than 100 nM; `O[C@@H]1CNCC[C@H]1COc1cc(Nc2cccc(F)c2)n2ncc(C3CC3)c2n1` (relative stereo) [Compound I-53, trans-4-((3-cyclopropyl-7-((3-fluorophenyl)amino)pyrazolo [1,5-a]pyrimidin-5-yl)oxymethyl)piperidin-3-ol]: less than 100 nM.
The same measure for `O[C@H]1CNCC[C@@H]1CNc1cc(Nc2cccc(F)c2)n2ncc(C3CCC3)c2n1` [Compound I-50]: less than 100 nM.
The same measure for `Cc1cc(F)cc(Nc2cc(O[C@H]3CCCNC3)nc3c(C4CCC4)cnn23)c1` [Compound I-58, (S)-3-cyclobutyl-N-(3-fluoro-5-methylphenyl)-5-((piperidin-3-yl)oxy)pyrazolo[1,5-a]pyrimidin-7-amine]: less than 100 nM; for `Cc1cc(C#N)cc(Nc2cc(N[C@H]3CCCNC3)nc3c(C4CCC4)cnn23)c1` [Compound I-68, (S)-3-((3-cyclobutyl-5-((piperidin-3-yl)amino)pyrazolo[1,5-a]pyrimidin-7-yl)amino)-5-methylbenzonitrile]: less than 100 nM; for `Cc1cc(C#N)cc(Nc2cc(N[C@H]3CCCNC3)nc3c(C4CC4)cnn23)c1` [Compound I-67, (S)-3-((3-cyclopropyl-5-((piperidin-3-yl)amino)pyrazolo[1,5-a]pyrimidin-7-yl)amino)-5-methylbenzonitrile]: 100 to 1000 nM.
For the compound `N[C@H]1CC[C@H](Nc2cc(Nc3cccc(F)c3)n3ncc(C4CC4)c3n2)CC1` [Compound I-6, Trans-N^5-(4-aminocyclohexyl)-3-cyclopropyl-N^7-(3-fluorophenyl)pyrazolo[1,5-a]pyrimidine-5,7-diamine], the IC50 fell in the range of 100 to 1000 nM.
`FC(F)(F)Cc1cccc(Nc2cc(N[C@H]3CCCNC3)nc3c(C4CC4)cnn23)c1` [Compound I-10] showed an IC50 of 100 to 1000 nM.
The same measure for `N#Cc1cccc(Nc2cc(NC[C@@H]3CCNC[C@H]3O)nc3c(C4CC4)cnn23)c1` [Compound I-15, (3S,4S)-3-((3-cyclopropyl-5-(((3-hydroxy)piperidin-4-yl)methylamino)pyrazolo[1,5-a]pyrimidin-7-yl)amino)benzonitrile]: 100 to 1000 nM.
The same measure for `Cc1cc(F)cc(Nc2cc(NC[C@H]3CCNC[C@@H]3O)nc3c(C4CC4)cnn23)c1` [Compound I-49, (3R,4R)-4-((3-cyclopropyl-7-((3-fluoro-5-methylphenyl)amino)pyrazolo [1,5-a]pyrimidin-5-yl)aminomethyl)piperidin-3-ol]: less than 100 nM; for `Cc1cc(F)cc(Nc2cc(N[C@@H]3CNC[C@@H](O)C3)nc3c(C4CCC4)cnn23)c1` [Compound I-56, (3S,5S)-5-((3-cyclobutyl-7-((3-fluoro-5-methylphenyl)amino)pyrazolo [1,5-a]pyrimidin-5-yl)amino)piperidin-3-ol]: 100 to 1000 nM; for `N#Cc1cccc(Nc2cc(N[C@H]3CCCNC3)nc3c(C4CC4)cnn23)c1` [Compound I-9, (S)-3-((3-cyclopropyl-5-((piperidin-3-yl)amino)pyrazolo[1,5-a]pyrimidin-7-yl)amino)benzonitrile]: less than 100 nM.
The same measure for `Fc1cc(Nc2cc(O[C@H]3CCCNC3)nc3c(C4CCC4)cnn23)cc(C(F)(F)F)c1` [Compound I-65, (S)-3-cyclobutyl-N-(5-fluoro-3-trifluoromethylphenyl)-5-((piperidin-3-yl)oxy)pyrazolo[1,5-a]pyrimidin-7-amine]: less than 100 nM.
The compound `Cc1cc(F)cc(Nc2cc(O[C@@H]3CNC[C@@H](O)C3)nc3c(C4CCC4)cnn23)c1` (relative stereo) [Compound I-57, trans-5-((3-cyclobutyl-7-((3-fluoro-5-methylphenyl)amino)pyrazolo [1,5-a]pyrimidin-5-yl)oxy)piperidin-3-ol] registered an IC50 of less than 100 nM.
Next, `O[C@H]1CNCC[C@@H]1CNc1cc(Nc2cccc(F)c2)n2ncc(C3CC3)c2n1` [Compound I-45, (3R,4R)-4-((3-cyclopropyl-7-((3-fluorophenyl)amino)pyrazolo [1,5-a]pyrimidin-5-yl)aminomethyl)piperidin-3-ol]: less than 100 nM.
Next, `O[C@@H]1CNC[C@@H](Nc2cc(Nc3cccc(F)c3)n3ncc(C4CC4)c3n2)C1` [Compound I-22, hydrochloride]: more than 1000 nM; `N[C@H]1CC[C@@H](Nc2cc(Nc3cccc(F)c3)n3ncc(C4CC4)c3n2)CC1` [Compound I-7, Cis-N^5-(4-aminocyclohexyl)-3-cyclopropyl-N^7-(3-fluorophenyl)pyrazolo[1,5-a]pyrimidine-5,7-diamine]: 100 to 1000 nM.
`O[C@@H]1CNCC[C@H]1CNc1cc(Nc2cccc(F)c2)n2ncc(C3CC3)c2n1` [Compound I-17] had an IC50 of 100 to 1000 nM.
